Laboratory results from PubChem BioAssay AID1963966 (Molecular Pharmacology Branch, DTP, NCI, 2024).

Test system: 935938-334-R-J1-PDC spheroids with HUVEC/MSC, viability
Assay: Anticancer human tumor 935938-334-R-J1-PDC patient-derived small intestine adenocarcinoma cell line growth inhibition [PI3K]
Details: for viability, T/C: stronger effect = lower value
Outline: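 We assembled tumor spheroids that included a stromal compartment of HUVEC and MSCs, then exposed them to targeted agents alone and together with PI3K pathway inhibitors. Concentration series descended by half-log from clinically achievable Cmax levels. Viability served as the endpoint.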

[1] = curve of first compound, second compound 0.0316 µM
[2] = curve of first compound, second compound 0.1 µM
[3] = curve of first compound, second compound 0.316 µM
[4] = curve of first compound, second compound 1 µM
[5] = curve of first compound, second compound 3.16 µM
[6] = curve of first compound, second compound 10 µM
[7] = second compound 0.0316 µM, first compound 0.0316 µM
[8] = second compound 0.0316 µM, first compound 0.1 µM
[9] = second compound 0.0316 µM, first compound 0.316 µM
[10] = second compound 0.0316 µM, first compound 1 µM
[11] = second compound 0.0316 µM, first compound 3.16 µM
[12] = second compound 0.0316 µM, first compound 10 µM
[13] = second compound 0.1 µM, first compound 0.0316 µM
[14] = second compound 0.1 µM, first compound 0.1 µM
[15] = second compound 0.1 µM, first compound 0.316 µM
[16] = second compound 0.1 µM, first compound 1 µM
[17] = second compound 0.1 µM, first compound 3.16 µM
[18] = second compound 0.1 µM, first compound 10 µM
[19] = second compound 0.316 µM, first compound 0.0316 µM
[20] = second compound 0.316 µM, first compound 0.1 µM
[21] = second compound 0.316 µM, first compound 0.316 µM
[22] = second compound 0.316 µM, first compound 1 µM
[23] = second compound 0.316 µM, first compound 3.16 µM
[24] = second compound 0.316 µM, first compound 10 µM
[25] = second compound 1 µM, first compound 0.0316 µM
[26] = second compound 1 µM, first compound 0.1 µM
[27] = second compound 1 µM, first compound 0.316 µM
[28] = second compound 1 µM, first compound 1 µM
[29] = second compound 1 µM, first compound 3.16 µM
[30] = second compound 1 µM, first compound 10 µM
[31] = second compound 3.16 µM, first compound 0.0316 µM
[32] = second compound 3.16 µM, first compound 0.1 µM
[33] = second compound 3.16 µM, first compound 0.316 µM
[34] = second compound 3.16 µM, first compound 1 µM
[35] = second compound 3.16 µM, first compound 3.16 µM
[36] = second compound 3.16 µM, first compound 10 µM
[37] = second compound 10 µM, first compound 0.0316 µM
[38] = second compound 10 µM, first compound 0.1 µM
[39] = second compound 10 µM, first compound 0.316 µM
[40] = second compound 10 µM, first compound 1 µM
[41] = second compound 10 µM, first compound 3.16 µM
[42] = second compound 10 µM, first compound 10 µM
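Further: compound exposure lasted seven days before viability was read.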
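Wherever viability, T/C is given: percent of vehicle DMSO treated spheroid viability so 100% = untreated.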

Compound: CCCS(=O)(=O)Nc1ccc(F)c(C(=O)c2c[nH]c3ncc(-c4ccc(Cl)cc4)cc23)c1F + CC(Nc1ncnc2nc[nH]c12)c1cc2cccc(Cl)c2c(=O)n1-c1ccccc1
- IC50 [1]: 6.71 µM
- IC50 [2]: 6.81 µM
- IC50 [3]: 6.86 µM
- IC50 [4]: 6.77 µM
- IC50 [5]: 6.38 µM
- IC50 [6]: 5.62 µM
- viability, T/C [7]: 107%
- viability, T/C [8]: 100%
- viability, T/C [9]: 140%
- viability, T/C [10]: 102%
- viability, T/C [11]: 95.2%
- viability, T/C [12]: 26.3%
- viability, T/C [13]: 88.2%
- viability, T/C [14]: 98.7%
- viability, T/C [15]: 95.9%
- viability, T/C [16]: 94%
- viability, T/C [17]: 108%
- viability, T/C [18]: 26.5%
- viability, T/C [19]: 99.8%
- viability, T/C [20]: 94%
- viability, T/C [21]: 111%
- viability, T/C [22]: 110%
- viability, T/C [23]: 96.3%
- viability, T/C [24]: 27%
- viability, T/C [25]: 97%
- viability, T/C [26]: 105%
- viability, T/C [27]: 109%
- viability, T/C [28]: 118%
- viability, T/C [29]: 91.6%
- viability, T/C [30]: 28.5%
- viability, T/C [31]: 109%
- viability, T/C [32]: 91.6%
- viability, T/C [33]: 99.9%
- viability, T/C [34]: 117%
- viability, T/C [35]: 84.3%
- viability, T/C [36]: 28%
- viability, T/C [37]: 91.2%
- viability, T/C [38]: 86.5%
- viability, T/C [39]: 91.6%
- viability, T/C [40]: 97%
- viability, T/C [41]: 78.1%
- viability, T/C [42]: 21.9%

Compound: CC(Nc1ncnc2nc[nH]c12)c1cc2cccc(Cl)c2c(=O)n1-c1ccccc1 (stereo unspecified)
- viability, T/C (compound 0.0316 µM): 99% [middle of 8 runs]
- viability, T/C (compound 10 µM): 80.4% [middle of 8 runs]
- IC50 (compound alone, run of 04/25/2023): > 10 µM

Compound: CC(=O)c1c(C)c2cnc(Nc3ccc(N4CCNCC4)cn3)nc2n(C2CCCC2)c1=O + CC(Nc1ncnc2nc[nH]c12)c1cc2cccc(Cl)c2c(=O)n1-c1ccccc1
- IC50 [1]: > 0.1 µM
- IC50 [2]: > 0.1 µM
- IC50 [3]: > 0.1 µM
- IC50 [4]: > 0.1 µM
- IC50 [5]: 0.0794 µM
- IC50 [6]: 0.049 µM
- viability, T/C (second compound 0.0316 µM, first compound 0.000316 µM): 105%
- viability, T/C (second compound 0.0316 µM, first compound 0.001 µM): 108%
- viability, T/C (second compound 0.0316 µM, first compound 0.00316 µM): 99%
- viability, T/C (second compound 0.0316 µM, first compound 0.01 µM): 97.2%
- viability, T/C [7]: 90%
- viability, T/C [8]: 73%
- viability, T/C (second compound 0.1 µM, first compound 0.000316 µM): 103%
- viability, T/C (second compound 0.1 µM, first compound 0.001 µM): 103%
- viability, T/C (second compound 0.1 µM, first compound 0.00316 µM): 93%
- viability, T/C (second compound 0.1 µM, first compound 0.01 µM): 69.5%
- viability, T/C [13]: 91.5%
- viability, T/C [14]: 74.6%
- viability, T/C (second compound 0.316 µM, first compound 0.000316 µM): 68.6%
- viability, T/C (second compound 0.316 µM, first compound 0.001 µM): 91.2%
- viability, T/C (second compound 0.316 µM, first compound 0.00316 µM): 105%
- viability, T/C (second compound 0.316 µM, first compound 0.01 µM): 89.7%
- viability, T/C [19]: 71.6%
- viability, T/C [20]: 64.9%
- viability, T/C (second compound 1 µM, first compound 0.000316 µM): 99.8%
- viability, T/C (second compound 1 µM, first compound 0.001 µM): 109%
- viability, T/C (second compound 1 µM, first compound 0.00316 µM): 93%
- viability, T/C (second compound 1 µM, first compound 0.01 µM): 88.5%
- viability, T/C [25]: 69.5%
- viability, T/C [26]: 53.4%
- viability, T/C (second compound 3.16 µM, first compound 0.000316 µM): 96.7%
- viability, T/C (second compound 3.16 µM, first compound 0.001 µM): 111%
- viability, T/C (second compound 3.16 µM, first compound 0.00316 µM): 97.6%
- viability, T/C (second compound 3.16 µM, first compound 0.01 µM): 86.3%
- viability, T/C [31]: 73.5%
- viability, T/C [32]: 44.1%
- viability, T/C (second compound 10 µM, first compound 0.000316 µM): 87.1%
- viability, T/C (second compound 10 µM, first compound 0.001 µM): 83.7%
- viability, T/C (second compound 10 µM, first compound 0.00316 µM): 78.4%
- viability, T/C (second compound 10 µM, first compound 0.01 µM): 67.1%
- viability, T/C [37]: 56.7%
- viability, T/C [38]: 40.2%

Compound: CC1(C)CCC(CN2CCN(c3ccc(C(=O)NS(=O)(=O)c4ccc(NCC5CCOCC5)c([N+](=O)[O-])c4)c(Oc4cnc5[nH]ccc5c4)c3)CC2)=C(c2ccc(Cl)cc2)C1 + Cc1nc(NC(=O)N2CCCC2C(N)=O)sc1-c1ccnc(C(C)(C)C(F)(F)F)c1
- IC50 [1]: 6.77 µM
- IC50 [2]: 7.42 µM
- IC50 [3]: 6.51 µM
- IC50 [4]: 5.32 µM
- IC50 [5]: 4.25 µM
- IC50 [6]: < 0.0316 µM
- viability, T/C [7]: 85.1%
- viability, T/C [8]: 97.9%
- viability, T/C [9]: 91.5%
- viability, T/C [10]: 80.6%
- viability, T/C [11]: 87.7%
- viability, T/C [12]: 30.7%
- viability, T/C [13]: 81.9%
- viability, T/C [14]: 97.5%
- viability, T/C [15]: 89.3%
- viability, T/C [16]: 99.4%
- viability, T/C [17]: 101%
- viability, T/C [18]: 34.6%
- viability, T/C [19]: 96.3%
- viability, T/C [20]: 99%
- viability, T/C [21]: 76.5%
- viability, T/C [22]: 55.2%
- viability, T/C [23]: 92.4%
- viability, T/C [24]: 29.8%
- viability, T/C [25]: 82%
- viability, T/C [26]: 75.5%
- viability, T/C [27]: 72.4%
- viability, T/C [28]: 57.4%
- viability, T/C [29]: 70.8%
- viability, T/C [30]: 25.4%
- viability, T/C [31]: 52.3%
- viability, T/C [32]: 67%
- viability, T/C [33]: 53.5%
- viability, T/C [34]: 58.6%
- viability, T/C [35]: 60%
- viability, T/C [36]: 26.2%
- viability, T/C [37]: 38.1%
- viability, T/C [38]: 42.1%
- viability, T/C [39]: 36.6%
- viability, T/C [40]: 44.4%
- viability, T/C [41]: 48%
- viability, T/C [42]: 31.4%

Compound: C[C@@H](NC(=O)c1ncnc(N)c1Cl)c1ncc(C(=O)Nc2cc(C(F)(F)F)c(Cl)cn2)s1 + COc1c(OCCCN2CCOCC2)ccc2c3n(c(=NC(=O)c4cnc(N)nc4)nc12)CCN3
- IC50 (curve of first compound, second compound 0.00316 µM): > 10 µM
- IC50 (curve of first compound, second compound 0.01 µM): > 10 µM
- IC50 [1]: > 10 µM
- IC50 [2]: 6.99 µM
- IC50 [3]: < 0.0316 µM
- IC50 [4]: < 0.0316 µM
- viability, T/C (second compound 0.00316 µM, first compound 0.0316 µM): 124%
- viability, T/C (second compound 0.00316 µM, first compound 0.1 µM): 105%
- viability, T/C (second compound 0.00316 µM, first compound 0.316 µM): 116%
- viability, T/C (second compound 0.00316 µM, first compound 1 µM): 108%
- viability, T/C (second compound 0.00316 µM, first compound 3.16 µM): 123%
- viability, T/C (second compound 0.00316 µM, first compound 10 µM): 82.3%
- viability, T/C (second compound 0.01 µM, first compound 0.0316 µM): 104%
- viability, T/C (second compound 0.01 µM, first compound 0.1 µM): 122%
- viability, T/C (second compound 0.01 µM, first compound 0.316 µM): 115%
- viability, T/C (second compound 0.01 µM, first compound 1 µM): 117%
- viability, T/C (second compound 0.01 µM, first compound 3.16 µM): 101%
- viability, T/C (second compound 0.01 µM, first compound 10 µM): 90%
- viability, T/C [7]: 81.3%
- viability, T/C [8]: 94.4%
- viability, T/C [9]: 96.2%
- viability, T/C [10]: 85.4%
- viability, T/C [11]: 76.3%
- viability, T/C [12]: 69.9%
- viability, T/C [13]: 67.5%
- viability, T/C [14]: 65.7%
- viability, T/C [15]: 73.2%
- viability, T/C [16]: 71.2%
- viability, T/C [17]: 60.8%
- viability, T/C [18]: 44.5%
- viability, T/C [19]: 46.3%
- viability, T/C [20]: 42.1%
- viability, T/C [21]: 38.9%
- viability, T/C [22]: 41.8%
- viability, T/C [23]: 40.1%
- viability, T/C [24]: 42.9%
- viability, T/C [25]: 36.8%
- viability, T/C [26]: 41.3%
- viability, T/C [27]: 40.8%
- viability, T/C [28]: 37.3%
- viability, T/C [29]: 37.5%
- viability, T/C [30]: 34.7%
